Measured values as given in US10336735B2, “Small molecule inhibitors of fibrosis” (THE CALIFORNIA INSTITUTE FOR BIOMEDICAL RESEARCH, priority 2014, dated 2019).

The compounds below were run on primary human lung fibroblasts and primary rodent HSCs (assay: High content imaging assay (α-SMA staining, cell morphology) of fibroblast to myofibroblast transdifferentiation, confirmed by Western blot and RT-PCR). Conditions: Homo sapiens, Fibroblast; imaging and western based activity.
Excerpt: High content imaging assays have been established, using primary human lung fibroblasts and primary rodent HSCs, that enable the identification of small molecules that either inhibit myofibroblast formation/activation or induce the reversion of activated myofibroblasts to a quiescent fibroblast state. Conditions, involving serum starvation and subsequent TGF-β treatment, have been identified that facilitate robust in vitro transdifferentiation in a miniaturized (384 well plate) format that is amenable to high throughput small molecule screening. The inhibition assay is based on α-SMA immunofluorescent staining and cell morphology changes associated with fibroblast to myofibroblast transdifferentiation, Using the selective ALK-5 TGF-β1 receptor inhibitor ([…]) as a positive control, the inhibition assay has been used to initiate a screen of a collection of ˜100,000 small molecules that consists of bioactive small molecules and a diversity set that has been assembled based on 2D and 3D structural diversity and inherent “drug-likeness” properties. Preliminary screening led to the identification of multiple previously identified anti-fibrotic molecules.
A high content imaging assay, based on α-SMA staining and cell morphological changes associated with fibroblast to myofibroblast transdifferentiation, was established using primary human lung fibroblasts and primary rodent HSCs. Conditions, involving serum starvation and subsequent TGF-β treatment, were identified that facilitate robust in vitro transdifferentiation in a miniaturized (384 well plate) format that is amenable to high throughput small molecule screening. A selective ALK-5 TGF-β1 receptor inhibitor (SB-431542) was used as a positive control. […] This assay was used to evaluate compounds of Formula (I), (Ia), (II), (IIa), (III), (IIIa), (IV), (IVa), (IVb), (V), (Va), (VI), (VIa), (VIb), (VIc), (VII), (VIIa), (VIII), (VIIIa), (IX), (IXa), (X), or (Xa) generated from medicinal chemistry efforts.
The activity of Itraconazole and compounds of Formula (I), (Ia), (II), (IIa), (III), (IIIa), (IV), (IVa), (IVb), (V), (Va), (VI), (VIa), (VIb), (VIc), (VII), (VIIa), (VIII), (VIIIa), (IX), (IXa), (X), or (Xa) was confirmed by analyzing changes in gene expression of multiple genes associated with fibroblast to myofibroblast transdifferentiation using biochemical methods (i.e., Western blot and RT-PCR). These 4-day assays were used to evaluate sets of 6 compounds at a time in 4-point dose response fashion.
The EC50 for (imaging and western based) activity is graded as: +++=<500 nM; ++=500 nM to 5 μM; +=5 to 30 μM); −=>30 μM; NT=Not Tested.

SMILES	EC50 [µM]
CCC(C)n1ncn(-c2ccc(N3CCN(c4ccc(OC[C@@H]5CO[C@@](Cn6cccn6)(c6ccccc6C(N)=O)O5)cc4)CC3)cc2)c1=O (some centres unmarked) [Compound 101]	5 to 30
CCC(C)n1ncn(-c2ccc(N3CCN(c4ccc(OC[C@@H]5CO[C@](Cc6ccnnc6)(c6ccc(Cl)cc6)O5)cc4)CC3)cc2)c1=O (some centres unmarked) [Compound 103]	0.5 to 5
CCC(C)n1ncn(-c2ccc(N3CCN(c4ccc(OC[C@@H]5CO[C@](Cc6ccnnc6)(c6cccc(Cl)c6)O5)cc4)CC3)cc2)c1=O (some centres unmarked) [Compound 104]	0.5 to 5
CCC(C)n1ncn(-c2ccc(N3CCN(c4ccc(OC[C@@H]5CO[C@](Cc6ccnnc6)(c6ccccc6Cl)O5)cc4)CC3)cc2)c1=O (some centres unmarked) [Compound 105]	< 0.5
CCC(C)n1ncn(-c2ccc(N3CCN(c4ccc(OC[C@@H]5CO[C@](Cc6ccnnc6)(c6ccc(Cl)c(Cl)c6)O5)cc4)CC3)cc2)c1=O (some centres unmarked) [Compound 106]	< 0.5
CCC(C)n1ncn(-c2ccc(N3CCN(c4ccc(OC[C@@H]5CO[C@](Cc6ccnnc6)(c6ccccc6OC)O5)cc4)CC3)cc2)c1=O (some centres unmarked) [Compound 107]	0.5 to 5
CCC(C)n1ncn(-c2ccc(N3CCN(c4ccc(OC[C@@H]5CO[C@](Cc6ccnnc6)(c6cccc(OC)c6)O5)cc4)CC3)cc2)c1=O (some centres unmarked) [Compound 108]	0.5 to 5
CCC(C)n1ncn(-c2ccc(N3CCN(c4ccc(OC[C@@H]5CO[C@](Cc6ccnnc6)(c6ccc(OC)cc6)O5)cc4)CC3)cc2)c1=O (some centres unmarked) [Compound 109]	0.5 to 5
CCC(C)n1ncn(-c2ccc(N3CCN(c4ccc(OC[C@@H]5CO[C@](Cc6ccnnc6)(c6cccc(C#N)c6)O5)cc4)CC3)cc2)c1=O (some centres unmarked) [Compound 110]	5 to 30
CCC(C)n1ncn(-c2ccc(N3CCN(c4ccc(OC[C@@H]5CO[C@](Cc6ccnnc6)(c6ccc(C#N)cc6)O5)cc4)CC3)cc2)c1=O (some centres unmarked) [Compound 111]	5 to 30
CCC(C)n1ncn(-c2ccc(N3CCN(c4ccc(OC[C@@H]5CO[C@](Cc6ccnnc6)(c6ccccc6C(F)(F)F)O5)cc4)CC3)cc2)c1=O (some centres unmarked) [Compound 112]	0.5 to 5
CCC(C)n1ncn(-c2ccc(N3CCN(c4ccc(OC[C@@H]5CO[C@](Cc6ccnnc6)(c6cccc(C(F)(F)F)c6)O5)cc4)CC3)cc2)c1=O (some centres unmarked) [Compound 113]	0.5 to 5
CCC(C)n1ncn(-c2ccc(N3CCN(c4ccc(OC[C@@H]5CO[C@](Cc6ccnnc6)(c6ccc(C(F)(F)F)cc6)O5)cc4)CC3)cc2)c1=O (some centres unmarked) [Compound 114]	< 0.5
CCC(C)n1ncn(-c2ccc(N3CCN(c4ccc(OC[C@@H]5CO[C@](Cc6ccnnc6)(c6ccc(OC(F)(F)F)cc6)O5)cc4)CC3)cc2)c1=O (some centres unmarked) [Compound 115]	0.5 to 5
CCC(C)n1ncn(-c2ccc(N3CCN(c4ccc(OC[C@@H]5CO[C@](Cc6ccnnc6)(c6ccccc6C)O5)cc4)CC3)cc2)c1=O (some centres unmarked) [Compound 116]	< 0.5
CCC(C)n1ncn(-c2ccc(N3CCN(c4ccc(OC[C@@H]5CO[C@](Cc6ccnnc6)(c6cccc(C)c6)O5)cc4)CC3)cc2)c1=O (some centres unmarked) [Compound 117]	0.5 to 5
CCC(C)n1ncn(-c2ccc(N3CCN(c4ccc(OC[C@@H]5CO[C@](Cc6ccnnc6)(c6ccc(C)cc6)O5)cc4)CC3)cc2)c1=O (some centres unmarked) [Compound 118]	5 to 30
CCC(C)n1ncn(-c2ccc(N3CCN(c4ccc(OC[C@@H]5CO[C@](Cc6ccnnc6)(c6ccc(S(C)(=O)=O)cc6)O5)cc4)CC3)cc2)c1=O (some centres unmarked) [Compound 119]	5 to 30
CCC(C)n1ncn(-c2ccc(N3CCN(c4ccc(OC[C@@H]5CO[C@](Cc6ccnnc6)(c6ccc(S(N)(=O)=O)cc6)O5)cc4)CC3)cc2)c1=O (some centres unmarked) [Compound 120]	> 30
CCC(C)n1ncn(-c2ccc(N3CCN(c4ccc(OC[C@@H]5CO[C@](Cc6ccnnc6)(c6ccc(C(N)=O)cc6)O5)cc4)CC3)cc2)c1=O (stereo partly drawn) [Compound 121, 4-((2S,4R)-4-((4-(4-(4-(1-sec-butyl-5-oxo-1H-1,2,4-triazol-4(5H)-yl)phenyl)piperazin-1-yl)phenoxy)methyl)-2-(pyridazin-4-ylmethyl)-1,3-dioxolan-2-yl)benzamide]	5 to 30
CCC(C)n1ncn(-c2ccc(N3CCN(c4ccc(OC[C@@H]5CO[C@](Cc6ccnnc6)(c6cc(Cl)cc(Cl)c6)O5)cc4)CC3)cc2)c1=O (some centres unmarked) [Compound 122]	< 0.5
CCC(C)n1ncn(-c2ccc(N3CCN(c4ccc(OC[C@@H]5CO[C@@](Cc6ccnnc6)(c6ccc(Cl)cc6)O5)cc4)CC3)cc2)c1=O (some centres unmarked) [Compound 123]	< 0.5

SMILES	EC50 [µM]
CCC(C)n1ncn(-c2ccc(N3CCN(c4ccc(OC[C@@H]5CO[C@@](Cc6ccnnc6)(c6cccc(Cl)c6)O5)cc4)CC3)cc2)c1=O (some centres unmarked) [Compound 124]	< 0.5
CCC(C)n1ncn(-c2ccc(N3CCN(c4ccc(OC[C@@H]5CO[C@@](Cc6ccnnc6)(c6ccccc6Cl)O5)cc4)CC3)cc2)c1=O (some centres unmarked) [Compound 125]	< 0.5
CCC(C)n1ncn(-c2ccc(N3CCN(c4ccc(OC[C@@H]5CO[C@@](Cc6ccnnc6)(c6ccc(Cl)c(Cl)c6)O5)cc4)CC3)cc2)c1=O (some centres unmarked) [Compound 126]	< 0.5
CCC(C)n1ncn(-c2ccc(N3CCN(c4ccc(OC[C@@H]5CO[C@@](Cc6ccnnc6)(c6ccccc6OC)O5)cc4)CC3)cc2)c1=O (some centres unmarked) [Compound 127]	< 0.5
CCC(C)n1ncn(-c2ccc(N3CCN(c4ccc(OC[C@@H]5CO[C@@](Cc6ccnnc6)(c6cccc(OC)c6)O5)cc4)CC3)cc2)c1=O (some centres unmarked) [Compound 128]	0.5 to 5
CCC(C)n1ncn(-c2ccc(N3CCN(c4ccc(OC[C@@H]5CO[C@@](Cc6ccnnc6)(c6ccc(OC)cc6)O5)cc4)CC3)cc2)c1=O (some centres unmarked) [Compound 129]	< 0.5
CCC(C)n1ncn(-c2ccc(N3CCN(c4ccc(OC[C@@H]5CO[C@@](Cc6ccnnc6)(c6cccc(C#N)c6)O5)cc4)CC3)cc2)c1=O (some centres unmarked) [Compound 130]	0.5 to 5
CCC(C)n1ncn(-c2ccc(N3CCN(c4ccc(OC[C@@H]5CO[C@@](Cc6ccnnc6)(c6ccc(C#N)cc6)O5)cc4)CC3)cc2)c1=O (some centres unmarked) [Compound 131]	> 30
CCC(C)n1ncn(-c2ccc(N3CCN(c4ccc(OC[C@@H]5CO[C@@](Cc6ccnnc6)(c6ccccc6C(F)(F)F)O5)cc4)CC3)cc2)c1=O (some centres unmarked) [Compound 132]	< 0.5
CCC(C)n1ncn(-c2ccc(N3CCN(c4ccc(OC[C@@H]5CO[C@@](Cc6ccnnc6)(c6cccc(C(F)(F)F)c6)O5)cc4)CC3)cc2)c1=O (some centres unmarked) [Compound 133]	< 0.5
CCC(C)n1ncn(-c2ccc(N3CCN(c4ccc(OC[C@@H]5CO[C@@](Cc6ccnnc6)(c6ccc(C(F)(F)F)cc6)O5)cc4)CC3)cc2)c1=O (some centres unmarked) [Compound 134]	< 0.5
CCC(C)n1ncn(-c2ccc(N3CCN(c4ccc(OC[C@@H]5CO[C@@](Cc6ccnnc6)(c6ccc(OC(F)(F)F)cc6)O5)cc4)CC3)cc2)c1=O (some centres unmarked) [Compound 135]	< 0.5
CCC(C)n1ncn(-c2ccc(N3CCN(c4ccc(OC[C@@H]5CO[C@@](Cc6ccnnc6)(c6ccccc6C)O5)cc4)CC3)cc2)c1=O (some centres unmarked) [Compound 136]	0.5 to 5
CCC(C)n1ncn(-c2ccc(N3CCN(c4ccc(OC[C@@H]5CO[C@@](Cc6ccnnc6)(c6cccc(C)c6)O5)cc4)CC3)cc2)c1=O (some centres unmarked) [Compound 137]	< 0.5
CCC(C)n1ncn(-c2ccc(N3CCN(c4ccc(OC[C@@H]5CO[C@@](Cc6ccnnc6)(c6ccc(C)cc6)O5)cc4)CC3)cc2)c1=O (some centres unmarked) [Compound 138]	< 0.5
CCC(C)n1ncn(-c2ccc(N3CCN(c4ccc(OC[C@@H]5CO[C@@](Cc6ccnnc6)(c6cc(Cl)cc(Cl)c6)O5)cc4)CC3)cc2)c1=O (some centres unmarked) [Compound 139]	< 0.5
CCC(C)n1ncn(-c2ccc(N3CCN(c4ccc(OC(C)[C@@H]5CO[C@@](Cn6nccn6)(c6ccccc6)O5)cc4)CC3)cc2)c1=O (some centres unmarked) [Compound 140]	5 to 30
CCC(C)n1ncn(-c2ccc(N3CCN(c4ccc(OCCO[C@@H](Cn5nccn5)c5ccccc5)cc4)CC3)cc2)c1=O (some centres unmarked) [Compound 141]	> 30
CCC(C)n1ncn(-c2ccc(N3CCN(c4ccc(OCCCO[C@@H](Cn5nccn5)c5ccccc5)cc4)CC3)cc2)c1=O (some centres unmarked) [Compound 142]	> 30
CCC(C)n1ncn(-c2ccc(N3CCN(c4ccc(OC[C@@H]5CO[C@@](Cn6nccn6)(c6ccccc6)C5)cc4)CC3)cc2)c1=O (some centres unmarked) [Compound 143]	5 to 30
CCC(CC)n1ncn(-c2ccc(N3CCN(c4ccc(OC[C@H]5CO[C@](Cn6nccn6)(c6ccccc6)C5)cc4C#N)CC3)cc2)c1=O [Compound 144]	> 30
O=c1n(-c2ccc(N3CCN(c4ccc(OC[C@H]5CO[C@](Cn6nccn6)(c6ccccc6)C5)cc4F)CC3)cc2)cnn1CC1CCCC1 [Compound 145]	5 to 30
